SMILES strings stand for the structures.

Consider 4 compounds from PubChem BioAssay AID1963837 (Molecular Pharmacology Branch, DTP, NCI, 2024).
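Note: spheroids exposed to drugs for seven days before readout.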

For the first experiment, the system named is 843126-344-R-J1-PDC complex spheroid viability. Briefly: Anticancer human tumor 843126-344-R-J1-PDC patient-derived melanoma cell line growth inhibition [POLQ]. The settings on record: second compound 0.0316 µM; first compound 1 µM; stronger effect = lower value. In a few lines:
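Complex spheroid viability model combining PDC tumour cells with endothelial (HUVEC) and MSC stromal cells. Novobiocin, ART-558 or RP6685 were tested singly and in combination with standard and investigational anticancer drugs. Each was titrated in half-log steps from near clinical Cmax, or from 10 microM where Cmax was unknown.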
Take `O=C(c1cc(Cc2n[nH]c(=O)c3ccccc23)ccc1F)N1CCN(C(=O)C2CC2)CC1` + Cc1cccc(N(C)C(=O)C2C(O)CCN2c2nc(C)cc(C(F)(F)F)c2C#N)c1: the viability, T/C was 82.3%.
Same read-out and setting: for `O=c1[nH]cc(F)c(=O)[nH]1` + Cc1cccc(N(C)C(=O)C2C(O)CCN2c2nc(C)cc(C(F)(F)F)c2C#N)c1 the value was 101%.

Staying with this experiment, now noted: second compound 0.0316 µM; first compound 3.16 µM; stronger effect = lower value.
In the case of `O=C(c1cc(Cc2n[nH]c(=O)c3ccccc23)ccc1F)N1CCN(C(=O)C2CC2)CC1` + Cc1cccc(N(C)C(=O)C2C(O)CCN2c2nc(C)cc(C(F)(F)F)c2C#N)c1, the viability, T/C is 91.9%.
Still for that read-out and setting: for `O=c1[nH]cc(F)c(=O)[nH]1` + Cc1cccc(N(C)C(=O)C2C(O)CCN2c2nc(C)cc(C(F)(F)F)c2C#N)c1 the value was 87.3%.

The experiment is the same for the next values; noted with them: second compound 0.0316 µM; first compound 10 µM; stronger effect = lower value.
On to `O=C(c1cc(Cc2n[nH]c(=O)c3ccccc23)ccc1F)N1CCN(C(=O)C2CC2)CC1` + Cc1cccc(N(C)C(=O)C2C(O)CCN2c2nc(C)cc(C(F)(F)F)c2C#N)c1, for which the viability, T/C was 74.2%.
Still for that read-out and setting: for `O=c1[nH]cc(F)c(=O)[nH]1` + Cc1cccc(N(C)C(=O)C2C(O)CCN2c2nc(C)cc(C(F)(F)F)c2C#N)c1 the value was 79.3%.

Staying with this experiment, now noted: second compound 0.1 µM; first compound 0.00316 µM; stronger effect = lower value.
`C=CCn1c(=O)c2cnc(Nc3ccc(N4CCN(C)CC4)cc3)nc2n1-c1cccc(C(C)(C)O)n1` + Cc1cccc(N(C)C(=O)C2C(O)CCN2c2nc(C)cc(C(F)(F)F)c2C#N)c1: the viability, T/C is 111%.
Same read-out and setting: in the case of `CCc1c2c(nc3ccc(O)cc13)-c1cc3c(c(=O)n1C2)COC(=O)[C@]3(O)CC` + Cc1cccc(N(C)C(=O)C2C(O)CCN2c2nc(C)cc(C(F)(F)F)c2C#N)c1 it was 72.8%.

Staying with this experiment, now noted: second compound 0.1 µM; first compound 0.01 µM; stronger effect = lower value.
For `C=CCn1c(=O)c2cnc(Nc3ccc(N4CCN(C)CC4)cc3)nc2n1-c1cccc(C(C)(C)O)n1` + Cc1cccc(N(C)C(=O)C2C(O)CCN2c2nc(C)cc(C(F)(F)F)c2C#N)c1, the viability, T/C was 113%.
Same read-out and setting: in the case of `CCc1c2c(nc3ccc(O)cc13)-c1cc3c(c(=O)n1C2)COC(=O)[C@]3(O)CC` + Cc1cccc(N(C)C(=O)C2C(O)CCN2c2nc(C)cc(C(F)(F)F)c2C#N)c1 it was 52.8%.

The experiment is the same for the next values; noted with them: second compound 0.1 µM; first compound 0.0316 µM; stronger effect = lower value.
Turning to `C=CCn1c(=O)c2cnc(Nc3ccc(N4CCN(C)CC4)cc3)nc2n1-c1cccc(C(C)(C)O)n1` + Cc1cccc(N(C)C(=O)C2C(O)CCN2c2nc(C)cc(C(F)(F)F)c2C#N)c1, the viability, T/C was 103%.
Same read-out and setting: for `CCc1c2c(nc3ccc(O)cc13)-c1cc3c(c(=O)n1C2)COC(=O)[C@]3(O)CC` + Cc1cccc(N(C)C(=O)C2C(O)CCN2c2nc(C)cc(C(F)(F)F)c2C#N)c1 the value was 60.6%; for `O=C(c1cc(Cc2n[nH]c(=O)c3ccccc23)ccc1F)N1CCN(C(=O)C2CC2)CC1` + Cc1cccc(N(C)C(=O)C2C(O)CCN2c2nc(C)cc(C(F)(F)F)c2C#N)c1, 110%.
As for `O=c1[nH]cc(F)c(=O)[nH]1` + Cc1cccc(N(C)C(=O)C2C(O)CCN2c2nc(C)cc(C(F)(F)F)c2C#N)c1, the viability, T/C is 99.8%.

Staying with this experiment, now noted: second compound 0.1 µM; first compound 0.1 µM; stronger effect = lower value.
`C=CCn1c(=O)c2cnc(Nc3ccc(N4CCN(C)CC4)cc3)nc2n1-c1cccc(C(C)(C)O)n1` + Cc1cccc(N(C)C(=O)C2C(O)CCN2c2nc(C)cc(C(F)(F)F)c2C#N)c1: the viability, T/C is 113%.
Still for that read-out and setting: in the case of `CCc1c2c(nc3ccc(O)cc13)-c1cc3c(c(=O)n1C2)COC(=O)[C@]3(O)CC` + Cc1cccc(N(C)C(=O)C2C(O)CCN2c2nc(C)cc(C(F)(F)F)c2C#N)c1 it was 58.8%; in that of `O=C(c1cc(Cc2n[nH]c(=O)c3ccccc23)ccc1F)N1CCN(C(=O)C2CC2)CC1` + Cc1cccc(N(C)C(=O)C2C(O)CCN2c2nc(C)cc(C(F)(F)F)c2C#N)c1, 98.7%.
Turning to `O=c1[nH]cc(F)c(=O)[nH]1` + Cc1cccc(N(C)C(=O)C2C(O)CCN2c2nc(C)cc(C(F)(F)F)c2C#N)c1, the viability, T/C was 98.3%.

Still in this experiment, the particulars now being: second compound 0.1 µM; first compound 0.316 µM; stronger effect = lower value.
`C=CCn1c(=O)c2cnc(Nc3ccc(N4CCN(C)CC4)cc3)nc2n1-c1cccc(C(C)(C)O)n1` + Cc1cccc(N(C)C(=O)C2C(O)CCN2c2nc(C)cc(C(F)(F)F)c2C#N)c1: the viability, T/C was 95.9%.
Same read-out and setting: for `CCc1c2c(nc3ccc(O)cc13)-c1cc3c(c(=O)n1C2)COC(=O)[C@]3(O)CC` + Cc1cccc(N(C)C(=O)C2C(O)CCN2c2nc(C)cc(C(F)(F)F)c2C#N)c1 the value was 60.8%; for `O=C(c1cc(Cc2n[nH]c(=O)c3ccccc23)ccc1F)N1CCN(C(=O)C2CC2)CC1` + Cc1cccc(N(C)C(=O)C2C(O)CCN2c2nc(C)cc(C(F)(F)F)c2C#N)c1, 92.7%.
On the same count and under the same terms, for `O=c1[nH]cc(F)c(=O)[nH]1` + Cc1cccc(N(C)C(=O)C2C(O)CCN2c2nc(C)cc(C(F)(F)F)c2C#N)c1 the value was 96.5%.

Still in this experiment, the particulars now being: second compound 0.1 µM; first compound 1 µM; stronger effect = lower value.
For the compound `C=CCn1c(=O)c2cnc(Nc3ccc(N4CCN(C)CC4)cc3)nc2n1-c1cccc(C(C)(C)O)n1` + Cc1cccc(N(C)C(=O)C2C(O)CCN2c2nc(C)cc(C(F)(F)F)c2C#N)c1, the viability, T/C was 80.8%.
As for `CCc1c2c(nc3ccc(O)cc13)-c1cc3c(c(=O)n1C2)COC(=O)[C@]3(O)CC` + Cc1cccc(N(C)C(=O)C2C(O)CCN2c2nc(C)cc(C(F)(F)F)c2C#N)c1, the viability, T/C was 42.8%.
Same read-out and setting: in the case of `O=C(c1cc(Cc2n[nH]c(=O)c3ccccc23)ccc1F)N1CCN(C(=O)C2CC2)CC1` + Cc1cccc(N(C)C(=O)C2C(O)CCN2c2nc(C)cc(C(F)(F)F)c2C#N)c1 it was 90.9%.
The same measure, in the same setting: in the case of `O=c1[nH]cc(F)c(=O)[nH]1` + Cc1cccc(N(C)C(=O)C2C(O)CCN2c2nc(C)cc(C(F)(F)F)c2C#N)c1 it was 97.5%.

Still in this experiment, the particulars now being: second compound 0.1 µM; first compound 3.16 µM; stronger effect = lower value.
Consider `O=C(c1cc(Cc2n[nH]c(=O)c3ccccc23)ccc1F)N1CCN(C(=O)C2CC2)CC1` + Cc1cccc(N(C)C(=O)C2C(O)CCN2c2nc(C)cc(C(F)(F)F)c2C#N)c1, for which the viability, T/C was 93.7%.
Still for that read-out and setting: in the case of `O=c1[nH]cc(F)c(=O)[nH]1` + Cc1cccc(N(C)C(=O)C2C(O)CCN2c2nc(C)cc(C(F)(F)F)c2C#N)c1 it was 81.5%.

The experiment is the same for the next values; noted with them: second compound 0.1 µM; first compound 10 µM; stronger effect = lower value.
As for `O=C(c1cc(Cc2n[nH]c(=O)c3ccccc23)ccc1F)N1CCN(C(=O)C2CC2)CC1` + Cc1cccc(N(C)C(=O)C2C(O)CCN2c2nc(C)cc(C(F)(F)F)c2C#N)c1, the viability, T/C is 67.1%.
`O=c1[nH]cc(F)c(=O)[nH]1` + Cc1cccc(N(C)C(=O)C2C(O)CCN2c2nc(C)cc(C(F)(F)F)c2C#N)c1: the viability, T/C is 93.2%.

The experiment is the same for the next values; noted with them: second compound 0.316 µM; first compound 0.00316 µM; stronger effect = lower value.
For `C=CCn1c(=O)c2cnc(Nc3ccc(N4CCN(C)CC4)cc3)nc2n1-c1cccc(C(C)(C)O)n1` + Cc1cccc(N(C)C(=O)C2C(O)CCN2c2nc(C)cc(C(F)(F)F)c2C#N)c1, the viability, T/C is 101%.
For the compound `CCc1c2c(nc3ccc(O)cc13)-c1cc3c(c(=O)n1C2)COC(=O)[C@]3(O)CC` + Cc1cccc(N(C)C(=O)C2C(O)CCN2c2nc(C)cc(C(F)(F)F)c2C#N)c1, the viability, T/C is 70.5%.

Staying with this experiment, now noted: second compound 0.316 µM; first compound 0.01 µM; stronger effect = lower value.
Consider `C=CCn1c(=O)c2cnc(Nc3ccc(N4CCN(C)CC4)cc3)nc2n1-c1cccc(C(C)(C)O)n1` + Cc1cccc(N(C)C(=O)C2C(O)CCN2c2nc(C)cc(C(F)(F)F)c2C#N)c1, for which the viability, T/C is 103%.
Still for that read-out and setting: for `CCc1c2c(nc3ccc(O)cc13)-c1cc3c(c(=O)n1C2)COC(=O)[C@]3(O)CC` + Cc1cccc(N(C)C(=O)C2C(O)CCN2c2nc(C)cc(C(F)(F)F)c2C#N)c1 the value was 61.6%.

The experiment is the same for the next values; noted with them: second compound 0.316 µM; first compound 0.0316 µM; stronger effect = lower value.
`C=CCn1c(=O)c2cnc(Nc3ccc(N4CCN(C)CC4)cc3)nc2n1-c1cccc(C(C)(C)O)n1` + Cc1cccc(N(C)C(=O)C2C(O)CCN2c2nc(C)cc(C(F)(F)F)c2C#N)c1: the viability, T/C was 108%.
With `CCc1c2c(nc3ccc(O)cc13)-c1cc3c(c(=O)n1C2)COC(=O)[C@]3(O)CC` + Cc1cccc(N(C)C(=O)C2C(O)CCN2c2nc(C)cc(C(F)(F)F)c2C#N)c1, the viability, T/C is 58.3%.
Take `O=C(c1cc(Cc2n[nH]c(=O)c3ccccc23)ccc1F)N1CCN(C(=O)C2CC2)CC1` + Cc1cccc(N(C)C(=O)C2C(O)CCN2c2nc(C)cc(C(F)(F)F)c2C#N)c1: the viability, T/C is 95.7%.
For `O=c1[nH]cc(F)c(=O)[nH]1` + Cc1cccc(N(C)C(=O)C2C(O)CCN2c2nc(C)cc(C(F)(F)F)c2C#N)c1, the viability, T/C was 105%.

The same experiment, now with this note: second compound 0.316 µM; first compound 0.1 µM; stronger effect = lower value.
For the compound `C=CCn1c(=O)c2cnc(Nc3ccc(N4CCN(C)CC4)cc3)nc2n1-c1cccc(C(C)(C)O)n1` + Cc1cccc(N(C)C(=O)C2C(O)CCN2c2nc(C)cc(C(F)(F)F)c2C#N)c1, the viability, T/C was 93.3%.
On the same count and under the same terms, for `CCc1c2c(nc3ccc(O)cc13)-c1cc3c(c(=O)n1C2)COC(=O)[C@]3(O)CC` + Cc1cccc(N(C)C(=O)C2C(O)CCN2c2nc(C)cc(C(F)(F)F)c2C#N)c1 the value was 58.6%; for `O=C(c1cc(Cc2n[nH]c(=O)c3ccccc23)ccc1F)N1CCN(C(=O)C2CC2)CC1` + Cc1cccc(N(C)C(=O)C2C(O)CCN2c2nc(C)cc(C(F)(F)F)c2C#N)c1, 78.8%; for `O=c1[nH]cc(F)c(=O)[nH]1` + Cc1cccc(N(C)C(=O)C2C(O)CCN2c2nc(C)cc(C(F)(F)F)c2C#N)c1, 108%.
